Tests used:
[1] = Erythrosin B dye exclusion viability test, MCF-7; type: cell-based; details: human, MCF-7 cells; erythrosin B exclusion test, 24 h, mean ± SD; read-out: MCF-7 LC50
Experimental: (§1) Subsequently, for the comparison of the antiproliferative and cytotoxic effects we assessed the cell viability after 24 h treatment with compounds 1–6 in both tumour cell lines using the dye exclusion test.
(§2) THP-1 human monocytic leukemia cell line, MCF-7 human breast adenocarcinoma cells and 3T3-L1 mouse embryonic fibroblast were purchased from the European Collection of Cell Cultures (ECACC, Salisbury, UK). Cells were routinely tested for the absence of mycoplasma (Hoechst 33258 staining method). THP-1 cells were maintained in RPMI 1640 culture medium containing 2 mM L-glutamine; MCF-7 and 3T3-L1 cells were cultured in DMEM medium. All of the culture media were supplemented with 10% heat-inactivated FBS and antibiotics (100 U/mL penicillin and 100 μg/mL streptomycin). Cells were maintained at 37 °C in a humidified atmosphere containing 5% CO2.
(§3) Cell proliferation was evaluated using Cell Proliferation Reagent WST-1 (2-(4-iodophenyl)-3-(4-nitrophenyl)-5-(2,4-disulfophenyl)-2H-tetrazolium) (Roche Diagnostics, Mannheim, Germany) according to the manufacturer´s instructions. THP-1 (5 × 10^4 cells/100 μL culture medium per well), MCF-7 cells (1 × 10^4 cells/100 μL per well), and 3T3-L1 (2.5 × 10^3 cells/100 μL per well) were cultured in 96-well plates in triplicate. The measurement was performed using Synergy 2 Multi-Mode Microplate Reader (BioTek, Winooski, VT, USA) after 24 h incubation of cells with tested compounds dissolved in DMSO and subsequently in RPMI 1640 to final concentration ranging 0.5–20 μM in the assays. Cell viability was assessed by dye exclusion test. THP-1 (2 × 10^5 cells/mL per well) and MCF-7 cells (8 × 10^4 cells/mL per well) were incubated in 24-well plates with the indicated concentrations of compounds for 24 h. The number of viable cells was determined using hemocytometer after their staining with a solution of erythrosin B (0.1% erythrosin B (w/v) in PBS). The assays were conducted in triplicate. The IC50 and LC50 values were calculated from fitted concentration-response curves using GraphPad Prism 5.00 software (GraphPad Software, San Diego, CA, USA).

MCF-7 cells [2] = assay: WST-1 cell proliferation assay, MCF-7; type: cell-based, human; details: for IC50: Homo sapiens, MCF7, WST-1, 24 h, 0.5-20 μM, mean ± SD; for effect on cell proliferation: MCF-7, 0.5-20 μM, 24 h
Experimental: (§4) Initially, we examined the effect of six nitro-substituted hydroxynaphthanilides on the proliferation of human leukaemia and breast carcinoma cell lines, using Water Soluble Tetrazolium Salts-1 (WST-1) assay. For such analyses, THP-1 and MCF-7 cells were treated with the compounds at concentrations ranging from 0.5 to 20 μM for 24 h. […] The inhibitory effect of 2 and 6 was statistically significant (p < 0.001) starting from the concentration of 2.5 and 5 μM in THP-1 and MCF-7 cells, respectively. From the concentration-response curves, the IC50 values were determined.
as §2, §3

3T3-L1 cells = assay: WST-1 cell proliferation assay, 3T3-L1 non-tumour cells; type: cell-based, mouse; details: for IC50: Mus musculus, 3T3-L1, WST-1, 24 h, non-tumour cells, mean ± SD; for effect on cell proliferation: 3T3-L1, 24 h
Experimental: as §2, §3

[3] = Erythrosin B dye exclusion viability test, THP-1; type: cell-based; details: human, THP-1 cells; erythrosin B exclusion test, 24 h, mean ± SD; read-out: THP-1 LC50
Experimental: as §1, §2, §3

THP-1 cells [4] = assay: WST-1 cell proliferation assay, THP-1; type: cell-based, human; details: for IC50: Homo sapiens, THP-1, WST-1, 24 h, 0.5-20 μM, mean ± SD; for effect on cell proliferation: THP-1, 0.5-20 μM, 24 h
Experimental: as §4, §2, §3

MCF-7 cells [5] = assay: Erythrosin B dye exclusion viability test, MCF-7; type: cell-based
Experimental: as §1, §2, §3

THP-1 cells [6] = assay: Erythrosin B dye exclusion viability test, THP-1; type: cell-based
Experimental: as §1, §2, §3

cyclin E1 [7] = assay: Western blot of cyclin E1 in MCF-7 cells; type: cell-based, human; details: MCF-7, 24 h
Experimental: (§5) Additionally, the cell cycle analysis allows determining the presence of a subdiploid cell population as a characteristic marker of cells with fractional DNA content. A significant increase (p < 0.001) of the sub-G1 peak was found only after the treatment with 5 µM of compound 2 in THP-1 cells, where an approximately eight-fold increase was observed compared to the drug-free control (Figure 4).
(§6) For Western blotting, cells were washed with PBS and lysed in lysis buffer (100 mM Tris-HCl, pH = 6.8; 20% glycerol; 1% SDS) containing protease and phosphatase inhibitor cocktails. Protein concentration was measured using Roti®-Quant universal (Carl Roth, Karsruhe, Germany) according to the manufacturer’s instructions. Cell lysates were supplemented with bromophenol blue (final concentration 0.01% (w/v)) and β-mercaptoethanol (final concentration 1% (v/v)) prior to being heated for 5 min at 95 °C. Equal amounts of protein (10 μg) were loaded into a 12% polyacrylamide gel, separated by SDS-polyacrylamide gel electrophoresis and subsequently electrotransferred onto nitrocellulose membranes. Reversible Ponceau S. staining was performed to assess equal sample loading. […] The intensity of bands was semi-quantitatively analysed using the ImageJ software (National Institute of Mental Health, Bethesda, MD, USA).

cyclin B1 [8] = assay: Western blot of cyclin B1 in THP-1 cells; type: cell-based, human; details: THP-1, 24 h
Experimental: as §5, §6

THP-1 cells [9] = assay: Flow cytometric cell cycle analysis (PI), THP-1; type: cell-based, human; details: THP-1, 24 h
Experimental: (§7) In order to determine at which stage of the cell cycle these compounds induce cell growth inhibition, flow cytometric analyses of cell cycle profiles in THP-1 and MCF-7 cell lines were performed. […] Therefore, THP-1 and MCF-7 cells were treated for 24 h with the compounds at concentrations of 2.5, 5, and 10 μM, respectively. In general, we detected a qualitatively similar effect on the distribution of cells in cell cycle phases following the treatment with compounds 2 and 6 in both leukaemia and breast carcinoma cells. […] This was in concert with a simultaneous decrease in the number of cells observed in the S phase compared to the drug-free control, while the percentage of cells in the G2/M phase remained unchanged.
(§8) THP-1 and sub-confluent MCF-7 cells were treated and subsequently incubated with indicated concentrations of compounds 2 and 6 for 24 h. After the incubation, cells were washed twice in PBS (pH 7.4), fixed in 70% ethanol and stored at −20 °C overnight. Fixed cells were collected by centrifugation, and supernatant was discarded. The cell pellet was washed twice with PBS and incubated with RNaseA (0.02 mg/mL) and 0.05% (v/v) Triton X-100 in PBS for 30 min at 37 °C. After the nuclei staining with propidium iodide (PI) (0.04 mg/mL), the cell cycle distribution was analysed using a flow cytometer Cell Lab Quanta SC (Beckman Coulter, Brea, CA, USA). The quantification of cell cycle distribution was carried out using software MultiCycle AV (Phoenix Flow System, San Diego, CA, USA). A total number of 2 × 10^4 cells was analysed per sample.

cyclin B1 [10] = assay: Western blot of cyclin B1 in MCF-7 cells; type: cell-based, human; details: MCF-7, 24 h
Experimental: as §5, §6

MCF-7 cells [11] = assay: Flow cytometric cell cycle analysis (PI), MCF-7; type: cell-based, human; details: MCF-7, 24 h
Experimental: as §7, §8

cyclin E1 [12] = assay: Western blot of cyclin E1 in THP-1 cells; type: cell-based, human; details: THP-1, 24 h
Experimental: as §5
For Western blotting, cells were washed with PBS and lysed in lysis buffer (100 mM Tris-HCl, pH = 6.8; 20% glycerol; 1% SDS) containing protease and phosphatase inhibitor cocktails. Protein concentration was measured using Roti®-Quant universal (Carl Roth, Karsruhe, Germany) according to the manufacturer’s instructions. Cell lysates were supplemented with bromophenol blue (final concentration 0.01% (w/v)) and β-mercaptoethanol (final concentration 1% (v/v)) prior to being heated for 5 min at 95 °C. Equal amounts of protein (10 μg) were loaded into a 12% polyacrylamide gel, separated by SDS-polyacrylamide gel electrophoresis and subsequently electrotransferred onto nitrocellulose membranes. Reversible Ponceau S. staining was performed to assess equal sample loading. Then, the membranes were blocked with 5% non-fat dry milk in TBST (10 mM Tris-HCl pH = 7.5, 150 mM NaCl, 0.1% (v/v) Tween-20) and appropriate primary and secondary antibodies were used for immunodetection. The proteins were visualized by ECL Plus reagent according to the manufacturer’s instructions. The intensity of bands was semi-quantitatively analysed using the ImageJ software (National Institute of Mental Health, Bethesda, MD, USA).

[13] = Annexin V-FITC/PI apoptosis assay by flow cytometry, THP-1; type: cell-based, human; details: human, THP-1 cells, THP-1, 5 μM, representative dot plot, read-out: quadrant I: viable cells
Experimental: (§9) Staining of cells by Annexin V-FITC conjugate reflects the externalization of phosphatidylserine on the outer surface of the cell membrane as one of the early indicators of apoptosis.
(§10) Early and late stages of apoptosis were detected using Annexin V-FITC Kit—Apoptosis Detection Kit faccording to the manufacturer´s instructions. […] At each time-point of incubation (12, 18, and 24 h) the cells were washed with ice-cold PBS prior to being resuspended at a concentration of 5 × 10^6 cells/mL in a total volume of 100 μL of 1× binding buffer. Annexin V-FITC solution (final concentration 0.25 μg/mL) and PI (final concentration 12.5 μg/mL) were added to each sample; the cell suspension was kept on ice and incubated for 15 min in the dark. After that, the analysis was carried out by flow cytometry. The data were evaluated using Kaluza Flow Cytometry Analysis 1.2. Per sample, a total number of 2 × 10^4 cells were analysed.

THP-1 cells [14] = assay: as above; type: cell-based, human; details: mean
Experimental: as §9, §10

O=C(Nc1ccccc1[N+](=O)[O-])c1cc2ccccc2cc1O [Compound 1]
CC50 at 24 h [1]: > 20 µM
IC50 (MCF-7 cells [2]): > 20 µM
effect on cell proliferation (MCF-7 cells [2]): neither compound 1 nor 4 (both ortho-substituted derivatives) was able to induce the inhibition of cell growth
IC50 (3T3-L1 cells): > 20 µM
CC50 at 24 h [3]: > 20 µM
IC50 (THP-1 cells [4]): > 20 µM
effect on cell proliferation (THP-1 cells [4]): neither compound 1 nor 4 (both ortho-substituted derivatives) was able to induce the inhibition of cell growth

O=C(Nc1ccc([N+](=O)[O-])cc1)c1cc2ccccc2cc1O [Compound 3]
CC50 at 24 h [1]: 12.9 ± 1.98 µM
LC50 in comparison with IC50 (MCF-7 cells [5]; MCF-7 cells): approximately seven-fold
IC50 (MCF-7 cells [2]): 1.65 ± 0.938 µM
effect on cell proliferation (MCF-7 cells [2]): inhibit cell growth in both cell lines in a dose-dependent manner
effect on cell proliferation (3T3-L1 cells): affected the proliferation of 3T3-L1 cells in a dose-dependent manner
IC50 (3T3-L1 cells): 4.41 ± 0.293 µM
CC50 at 24 h [3]: 3.44 ± 1.21 µM
LC50 compared to IC50 (THP-1 cells [6]): 2–3 fold
IC50 (THP-1 cells [4]): 1.05 ± 0.199 µM
effect on cell proliferation (THP-1 cells [4]): inhibit cell growth in both cell lines in a dose-dependent manner

O=C(Nc1ccccc1[N+](=O)[O-])c1c(O)ccc2ccccc12 [Compound 4]
CC50 at 24 h [1]: > 20 µM
IC50 (MCF-7 cells [2]): > 20 µM
effect on cell proliferation (MCF-7 cells [2]): neither compound 1 nor 4 (both ortho-substituted derivatives) was able to induce the inhibition of cell growth
IC50 (3T3-L1 cells): > 20 µM
CC50 at 24 h [3]: > 20 µM
IC50 (THP-1 cells [4]): > 20 µM
effect on cell proliferation (THP-1 cells [4]): neither compound 1 nor 4 (both ortho-substituted derivatives) was able to induce the inhibition of cell growth

O=C(Nc1cccc([N+](=O)[O-])c1)c1c(O)ccc2ccccc12 [Compound 5]
CC50 at 24 h [1]: > 20 µM
IC50 (MCF-7 cells [2]): > 20 µM
effect on cell proliferation (MCF-7 cells [2]): a 50% reduction in cell growth was not achieved
IC50 (3T3-L1 cells): > 20 µM
CC50 at 24 h [3]: > 20 µM
IC50 (THP-1 cells [4]): > 20 µM
effect on cell proliferation (THP-1 cells [4]): proliferation of THP-1 cells was not affected

O=C(Nc1ccc([N+](=O)[O-])cc1)c1c(O)ccc2ccccc12 [Compound 6, 2-hydroxy-N-(4-nitrophenyl)-naphthalene-1-carboxamide]
expression of cyclin E1 (cyclin E1 [7]): dose-dependent decrease in expression of cyclin E1
CC50 at 24 h [1]: > 20 µM
effect on cell viability (MCF-7 cells [5]; MCF-7, 24 h, vs control): Neither compound 2 nor 6 reduced cell viability under 50%
total protein levels of cyclin B1 (cyclin B1 [8]): total protein levels of cyclin B1 were not changed
IC50 (MCF-7 cells [2]): 5.23 ± 0.802 µM
effect on cell proliferation (MCF-7 cells [2]): inhibit cell growth in both cell lines in a dose-dependent manner
concentration from which the inhibitory effect on proliferation was statistically significant (p < 0.001) (MCF-7 cells [2]; MCF-7, 24 h): 5 µM
effect on cell proliferation (3T3-L1 cells): did not decrease cell growth at any of concentrations used
IC50 (3T3-L1 cells): > 20 µM
distribution of cells in cell cycle phases (THP-1 cells [9]): induced accumulation of cells in G1 phase
sub-G1 / sub-diploid population (THP-1 cells [9]): no significant increase of sub-diploid population
total protein levels of cyclin B1 (cyclin B1 [10]): total protein levels of cyclin B1 were not changed
CC50 at 24 h [3]: 9.98 ± 0.349 µM
LC50 compared to IC50 (THP-1 cells [6]): 2–3 fold
IC50 (THP-1 cells [4]): 5.8 ± 0.37 µM
effect on cell proliferation (THP-1 cells [4]): inhibit cell growth in both cell lines in a dose-dependent manner
concentration from which the inhibitory effect on proliferation was statistically significant (p < 0.001) (THP-1 cells [4]; THP-1, 24 h): 2.5 µM
distribution of cells in cell cycle phases (MCF-7 cells [11]): induced accumulation of cells in G1 phase
sub-G1 / sub-diploid population (MCF-7 cells [11]): no significant increase of sub-diploid population
expression of cyclin E1 (cyclin E1 [12]): dose-dependent decrease in expression of cyclin E1
levels of cyclin E1 low molecular weight (LMW E1) isoform (cyclin E1 [12]): more pronounced reduction of LMW E1 isoform levels

CC[C@@]1(O)C(=O)OCc2c1cc1n(c2=O)Cc2cc3ccccc3nc2-1 [camptothecin, reference compound]
viability at 12 h, 5 µM ([13]; 12 h): 55.8%
viability at 18 h, 5 µM ([13]; 18 h): 53.8%
viability at 24 h, 5 µM ([13]; 24 h): 50.9%
early apoptotic cells (THP-1 cells [14]; THP-1, 5 µM, 12 h): 21.28%
late apoptotic cells (THP-1 cells [14]; THP-1, 5 µM, 12 h): 24.10%
early apoptotic cells (THP-1 cells [14]; THP-1, 5 µM, 24 h): 9.65%
late apoptotic cells (THP-1 cells [14]; THP-1, 5 µM, 24 h): 33.08%

N.N.[Cl][Pt][Cl] [cisplatin, reference compound]
early apoptotic cells (THP-1 cells [14]; THP-1, 10 µg/mL, 24 h): 44.38%
